Reference: patent publication US8952024B2, “Herbicidal pyrimidone derivatives” (E I du Pont de Nemours and Company, priority 2009, dated 2015)

Tests used:
Type in all cases: in vivo
[1] = tested on: barnyardgrass (Echinochloa crus-galli); assay: Test A pre-/postemergence plant response
Description: (§1) Seeds of barnyardgrass (Echinochloa crus-galli), large crabgrass (Digitaria sanguinalis), giant foxtail (Setaria faberii), morningglory (Ipomoea spp.), pigweed (Amaranthus retroflexus), velvetleaf (Abutilon theophrasti), wheat (Triticum aestivum) and corn (Zea mays) were planted into a blend of loam soil and sand and treated preemergence with a directed soil spray using test chemicals formulated in a non-phytotoxic solvent mixture which included a surfactant. At the same time these species were also treated with postemergence applications of test compounds formulated in the same manner.
(§2) Plants ranged in height from two to ten cm and were in the one- to two-leaf stage for the postemergence treatment. Treated plants and untreated controls were maintained in a greenhouse for approximately ten days, after which time all treated plants were compared to untreated controls and visually evaluated for injury. Plant response ratings, summarized in Table A, are based on a 0 to 100 scale where 0 is no effect and 100 is complete control. A dash (-) response means no test result.

[2] = tested on: giant foxtail (Setaria faberii); assay: Test A pre-/postemergence plant response
Description: as §1, §2

[3] = tested on: velvetleaf (Abutilon theophrasti); assay: Test A pre-/postemergence plant response
Description: as §1, §2

corn (Zea mays) = assay: Test A pre-/postemergence plant response
Description: as §1, §2

[4] = tested on: wheat (Triticum aestivum); assay: Test A pre-/postemergence plant response
Description: as §1, §2

[5] = tested on: morningglory (Ipomoea spp.); assay: Test A pre-/postemergence plant response
Description: as §1, §2

[6] = tested on: large crabgrass (Digitaria sanguinalis); assay: Test A pre-/postemergence plant response
Description: as §1, §2

[7] = tested on: pigweed (Amaranthus retroflexus); assay: Test A pre-/postemergence plant response
Description: as §1, §2

[8] = tested on: barnyardgrass (Echinochloa crus-galli); assay: Test B flooded paddy test; settings: for Plant response rating, Flood, Barnyardgrass: 250 g ai/ha, flooded paddy test, visual rating on 0 to 100 scale (0 no effect, 100 complete control) after 13 to 15 days; for Plant response rating, Barnyardgrass: Flood (flooded paddy test), 13 to 15 days
Description: (§3) Plant species in the flooded paddy test consisted of rice (Oryza sativa), umbrella sedge (Cyperus difformis), ducksalad (Heteranthera limosa) and barnyardgrass (Echinochloa crus-galli) grown to the 2-leaf stage for testing. At the time of treatment, test pots were flooded with water to 3 cm above the soil surface, treated by application of test compounds directly to the paddy water, and then maintained at that water depth for the duration of the test.
(§4) Treated plants and controls were maintained in a greenhouse for 13 to 15 days, after which time all treated plants were visually evaluated and compared to controls. Plant response ratings, summarized in Table B, are based on a scale of 0 to 100 where 0 is no effect and 100 is complete control. A dash (-) response means no test result.

[9] = tested on: ducksalad (Heteranthera limosa); assay: Test B flooded paddy test; settings: for Plant response rating, Flood, Ducksalad: 250 g ai/ha, flooded paddy test, visual rating on 0 to 100 scale (0 no effect, 100 complete control) after 13 to 15 days; for Plant response rating, Ducksalad: Flood (flooded paddy test), 13 to 15 days
Description: as §3, §4

rice (Oryza sativa) = assay: Test B flooded paddy test; settings: for Plant response rating, Flood, Rice: 250 g ai/ha, flooded paddy test, visual rating on 0 to 100 scale (0 no effect, 100 complete control) after 13 to 15 days; for Plant response rating, Rice: Flood (flooded paddy test), 13 to 15 days
Description: as §3, §4

[10] = tested on: umbrella sedge (Cyperus difformis); assay: Test B flooded paddy test; settings: for Plant response rating, Flood, Sedge, Umbrella: 250 g ai/ha, flooded paddy test, visual rating on 0 to 100 scale (0 no effect, 100 complete control) after 13 to 15 days; for Plant response rating, Sedge, Umbrella: Flood (flooded paddy test), 13 to 15 days
Description: as §3, §4

[11] = Postemergence, 125 g ai/ha, visual injury, 0 to 100 scale (0 no effect, 100 complete control), approx. ten days
[12] = Postemergence, 500 g ai/ha, 0 to 100 scale, 0 = no effect, 100 = complete control, approx. ten days
[13] = Preemergence, 125 g ai/ha, 0 to 100 scale, 0 = no effect, 100 = complete control
[14] = Preemergence, 500 g ai/ha, visual injury, 0 to 100 scale (0 no effect, 100 complete control), approx. ten days
[15] = 62 g ai/ha, scale 0 to 100, 0 is no effect, 100 is complete control
[16] = 31 g ai/ha, scale of 0 to 100 where 0 is no effect and 100 is complete control
[17] = 62 g ai/ha, scale of 0 to 100 where 0 is no effect and 100 is complete control
[18] = 125 g ai/ha, scale 0 to 100, 0 is no effect, 100 is complete control

For `Cc1ccc(-n2c(-c3ccccc3)ncc(C(=O)C3=C(O)CCCC3=O)c2=O)c(Cl)c1` [Compound 41], the “Barnyardgrass plant response rating” value [1, 11] was 50, the “Plant response rating, Barnyardgrass” value [1, 12] was 90 and the “Plant response rating, Barnyardgrass” value [1, 13] was 0. For the same compound, the “Plant response rating, Barnyardgrass” value [1, 14] was 80, the “Foxtail, Giant plant response rating” value [2, 11] was 20 and the “Plant response rating, Foxtail, Giant” value [2, 12] was 80. The “Plant response rating, Foxtail, Giant” value [2, 13] was 10, the “Plant response rating, Foxtail, Giant” value [2, 14] was 30 and the “Velvetleaf plant response rating” value [3, 11] was 100. For the same compound, the “Plant response rating, Velvetleaf” value [3, 12] was 100, the “Plant response rating, Velvetleaf” value [3, 13] was 30 and the “Plant response rating, Velvetleaf” value [3, 14] was 80. The “Corn plant response rating” value (corn (Zea mays); [11]) was 0, the “Plant response rating, Corn” value (corn (Zea mays); [12]) was 10 and the “Plant response rating, Corn” value (corn (Zea mays); [13]) was 0. The “Plant response rating, Corn” value (corn (Zea mays); [14]) was 0, the “Wheat plant response rating” value [4, 11] was 0 and the “Plant response rating, Wheat” value [4, 12] was 0. The “Plant response rating, Wheat” value [4, 13] was 0, the “Plant response rating, Wheat” value [4, 14] was 0 and the “Morningglory plant response rating” value [5, 11] was 10. The “Plant response rating, Morningglory” value [5, 12] was 70, the “Plant response rating, Morningglory” value [5, 13] was 0 and the “Plant response rating, Morningglory” value [5, 14] was 20. For the same compound, the “Crabgrass, Large plant response rating” value [6, 11] was 20, the “Plant response rating, Crabgrass, Large” value [6, 12] was 70 and the “Plant response rating, Crabgrass, Large” value [6, 13] was 20. For the same compound, the “Plant response rating, Crabgrass, Large” value [6, 14] was 80, the “Pigweed plant response rating” value [7, 11] was 100 and the “Plant response rating, Pigweed” value [7, 12] was 100. The “Plant response rating, Pigweed” value [7, 13] was 90, the “Plant response rating, Pigweed” value [7, 14] was 90 and the “Plant response rating, Flood, Barnyardgrass” value [8] was 30. For the same compound, the “Plant response rating, Barnyardgrass” value [8, 15] was 0, the “Plant response rating, Flood, Ducksalad” value [9] was 75 and the “Plant response rating, Ducksalad” value [9, 15] was 70. For the same compound, the “Plant response rating, Flood, Rice” value (rice (Oryza sativa)) was 0, the “Plant response rating, Rice” value (rice (Oryza sativa); [15]) was 0 and the “Plant response rating, Flood, Sedge, Umbrella” value [10] was 80. The “Plant response rating, Sedge, Umbrella” value [10, 15] was 70.

For `Cc1cc(Cl)ccc1-n1c(-c2ccccc2)ncc(C(=O)C2=C(O)CCCC2=O)c1=O` [Compound 43], the “Barnyardgrass plant response rating” value [1, 11] was 70, the “Plant response rating, Barnyardgrass” value [1, 12] was 90 and the “Plant response rating, Barnyardgrass” value [1, 13] was 10. For the same compound, the “Plant response rating, Barnyardgrass” value [1, 14] was 80, the “Foxtail, Giant plant response rating” value [2, 11] was 60 and the “Plant response rating, Foxtail, Giant” value [2, 12] was 80. For the same compound, the “Plant response rating, Foxtail, Giant” value [2, 13] was 10, the “Plant response rating, Foxtail, Giant” value [2, 14] was 70 and the “Velvetleaf plant response rating” value [3, 11] was 100. For the same compound, the “Plant response rating, Velvetleaf” value [3, 12] was 100, the “Plant response rating, Velvetleaf” value [3, 13] was 60 and the “Plant response rating, Velvetleaf” value [3, 14] was 100. The “Corn plant response rating” value (corn (Zea mays); [11]) was 0, the “Plant response rating, Corn” value (corn (Zea mays); [12]) was 50 and the “Plant response rating, Corn” value (corn (Zea mays); [13]) was 0. The “Plant response rating, Corn” value (corn (Zea mays); [14]) was 0, the “Wheat plant response rating” value [4, 11] was 0 and the “Plant response rating, Wheat” value [4, 12] was 0. The “Plant response rating, Wheat” value [4, 13] was 0, the “Plant response rating, Wheat” value [4, 14] was 0 and the “Morningglory plant response rating” value [5, 11] was 20. For the same compound, the “Plant response rating, Morningglory” value [5, 12] was 80, the “Plant response rating, Morningglory” value [5, 13] was 0 and the “Plant response rating, Morningglory” value [5, 14] was 10. The “Crabgrass, Large plant response rating” value [6, 11] was 70, the “Plant response rating, Crabgrass, Large” value [6, 12] was 90 and the “Plant response rating, Crabgrass, Large” value [6, 13] was 50. For the same compound, the “Plant response rating, Crabgrass, Large” value [6, 14] was 100, the “Pigweed plant response rating” value [7, 11] was 100 and the “Plant response rating, Pigweed” value [7, 12] was 100. For the same compound, the “Plant response rating, Pigweed” value [7, 13] was 90, the “Plant response rating, Pigweed” value [7, 14] was 100 and the “Plant response rating, Flood, Barnyardgrass” value [8] was 20. The “Plant response rating, Barnyardgrass” value [8, 15] was 20, the “Plant response rating, Flood, Ducksalad” value [9] was 80 and the “Plant response rating, Ducksalad” value [9, 15] was 70. The “Plant response rating, Flood, Rice” value (rice (Oryza sativa)) was 40, the “Plant response rating, Rice” value (rice (Oryza sativa); [15]) was 0 and the “Plant response rating, Flood, Sedge, Umbrella” value [10] was 80. For the same compound, the “Plant response rating, Sedge, Umbrella” value [10, 15] was 30.

With `CC(C)c1ncc(C(=O)C2=C(O)CCCC2=O)c(=O)n1-c1ccccc1` [Compound 60] the “Barnyardgrass plant response rating” value [1, 11] was 60, the “Plant response rating, Barnyardgrass” value [1, 12] was 90 and the “Plant response rating, Barnyardgrass” value [1, 13] was 60. The “Plant response rating, Barnyardgrass” value [1, 14] was 90, the “Foxtail, Giant plant response rating” value [2, 11] was 80 and the “Plant response rating, Foxtail, Giant” value [2, 12] was 90. The “Plant response rating, Foxtail, Giant” value [2, 13] was 60, the “Plant response rating, Foxtail, Giant” value [2, 14] was 90 and the “Velvetleaf plant response rating” value [3, 11] was 100. For the same compound, the “Plant response rating, Velvetleaf” value [3, 12] was 100, the “Plant response rating, Velvetleaf” value [3, 13] was 80 and the “Plant response rating, Velvetleaf” value [3, 14] was 100. The “Corn plant response rating” value (corn (Zea mays); [11]) was 0, the “Plant response rating, Corn” value (corn (Zea mays); [12]) was 10 and the “Plant response rating, Corn” value (corn (Zea mays); [13]) was 0. The “Plant response rating, Corn” value (corn (Zea mays); [14]) was 10, the “Wheat plant response rating” value [4, 11] was 20 and the “Plant response rating, Wheat” value [4, 12] was 50. The “Plant response rating, Wheat” value [4, 13] was 0, the “Plant response rating, Wheat” value [4, 14] was 40 and the “Morningglory plant response rating” value [5, 11] was 60. For the same compound, the “Plant response rating, Morningglory” value [5, 12] was 90, the “Plant response rating, Morningglory” value [5, 14] was 80 and the “Crabgrass, Large plant response rating” value [6, 11] was 90. The “Plant response rating, Crabgrass, Large” value [6, 12] was 100, the “Plant response rating, Crabgrass, Large” value [6, 13] was 90 and the “Plant response rating, Crabgrass, Large” value [6, 14] was 100. The “Pigweed plant response rating” value [7, 11] was 100, the “Plant response rating, Pigweed” value [7, 12] was 100 and the “Plant response rating, Pigweed” value [7, 13] was 90. For the same compound, the “Plant response rating, Pigweed” value [7, 14] was 100, the “Plant response rating, Flood, Barnyardgrass” value [8] was 40 and the “Plant response rating, Barnyardgrass” value [8, 16] was 0. The “Plant response rating, Barnyardgrass” value [8, 17] was 0, the “Plant response rating, Barnyardgrass” value [8, 18] was 30 and the “Plant response rating, Flood, Ducksalad” value [9] was 60. The “Plant response rating, Ducksalad” value [9, 16] was 0, the “Plant response rating, Ducksalad” value [9, 17] was 0 and the “Plant response rating, Ducksalad” value [9, 18] was 40. The “Plant response rating, Flood, Rice” value (rice (Oryza sativa)) was 15, the “Plant response rating, Rice” value (rice (Oryza sativa); [16]) was 0 and the “Plant response rating, Rice” value (rice (Oryza sativa); [17]) was 0. For the same compound, the “Plant response rating, Rice” value (rice (Oryza sativa); [18]) was 0, the “Plant response rating, Flood, Sedge, Umbrella” value [10] was 85 and the “Plant response rating, Sedge, Umbrella” value [10, 16] was 0. For the same compound, the “Plant response rating, Sedge, Umbrella” value [10, 17] was 30 and the “Plant response rating, Sedge, Umbrella” value [10, 18] was 75.
